Assay results reported in US20230381094A1, “Cosmetic Composition with Skin Microbiome-Friendly Properties” (LG Household & Health Care Ltd., priority 2022, published 2023).

Tested on: Staphylococcus epidermidis
Assay: Beneficial skin bacteria affinity evaluation (challenge test)
Assay type: cell-based
Settings: Experimental Example 1; ingredient in oil-in-water composition of Preparation Example 1; FIG. 2 / FIG. 3
Source text: As the beneficial bacteria serving as the affinity evaluation criterion of each composition prepared in Preparation Example 1, Staphylococcus epidermidis (S. epidermidis), a Gram positive bacterium, was selected. S. epidermidis is part of the skin flora present in large numbers in healthy skin, and is a representative beneficial bacterium that helps improve skin immunity and protect skin from external environmental factors by producing peptide antibiotics or PSM (phenol-soluble modulins) (Parlet, C. P., et al. (2019) Trends in microbiology, 27(6), 497-507). The evaluation of affinity for beneficial bacteria was performed by the challenge test method (Russell A. D., (2003), Int J Cosmet Sci., 25(3), 147-153) as follows.
Specifically, S. epidermidis was first incubated in TSA (Tryptic Soy Agar) medium at 37° C. for 24 hours, and then inoculated into 50.0 g of each composition prepared in Preparation Example 1 so as to be 1×10^6 CFU to 1×10^7 CFU (colony-forming units)/mL. After inoculation, the bacteria were evenly mixed in the composition by vortexing or using a sterilized stick. After inoculation, the mixture was stored at room temperature. In consideration of the product usage cycle, such as cosmetics, and the general usage patterns of these products, a maximum of 24 hours was set as the time required for examination. With this determination, 24 hours after inoculation, 1 mL of the composition inoculated with the bacteria was diluted stepwise using a 0.85% NaCl solution, 100 μL of each diluted solution was spread on TSA medium, incubation was conducted at 37° C. for 48 hours, and then CFUs were counted.
As the affinity evaluation criterion, the following “bacterial growth index*” parameter was used, and a composition having a bacterial growth index of −1.00 or more on day 1 after inoculation of bacteria was selected as a “cosmetic with beneficial skin bacteria-friendly properties” having an effect of maintaining beneficial skin bacteria or enhancing beneficial skin bacteria.
*Bacterial growth index=log10[{Number of viable bacteria (CFU/g)}/{Number of inoculated bacteria (CFU/g)}]

| Compound | growth of beneficial bacteria (result in words) |
| --- | --- |
| inulin lauryl carbamate | did not inhibit the growth of beneficial bacteria |
| C=CCCCCCCCCC(=O)OCCCCCCC [heptyl undecylenate] | inhibit the growth of beneficial bacteria |
| diethoxyethyl succinate | inhibit the growth of beneficial bacteria |
| sodium dilauramidoglutamide lysine | did not inhibit the growth of beneficial bacteria |
| CCOCCOCCOC(=O)C1CCC(C(=O)OCCOCCOCC)CC1 (centres unmarked) [bis-ethoxydiglycol cyclohexane 1,4-dicarboxylate] | inhibit the growth of beneficial bacteria |
